Measured values reported in article PMC11215771 (Journal of Medicinal Chemistry, 2024).

How the values were obtained:
[1] = target: T1, hBACE1 fused to EGFP or mCherry in HEK293T cells (Homo sapiens, UniProt P56817); assay: Staining of transfected HEK293T cells, confocal imaging: BACE1; format: cell-based; settings: for staining of BACE1 after preincubation with unconjugated C3: living HEK293T, preincubation with 2 μM C3
T1 construct: expressed in transfected cells; host or cells: HEK293T
Protocol: (§1) Next, we explored the performance of the new Alexa-C3 compounds in living cells. Because of the rather hydrophilic properties, we exclusively targeted the cell membrane. To prevent intracellular accumulation, we first performed stainings at 4 °C arresting ATP-dependent endocytosis. […] All of the constructs were tagged at the C-terminus with either EGFP or mCherry to visualize subcellular expression. […] With these experiments, we want to exclude that a lack of staining is caused by an impaired accessibility of the protein by Alexa-C3 compounds. […] We then tested samples with BACE1 expression after fixation of the cells with paraformaldehyde (PFA).
(§2) (D) All conjugates were also probed on cells fixed with 4% paraformaldehyde (PFA) for 15 min prior to staining. […] Scale bars represent 5 μm (A–D) and 20 μm (E). […] Samples were excited at 488, 561, and 633 nm, respectively.
(§3) HEK293T cells (ATCC accession number CRL-11268) were maintained in Dulbecco's modified Eagle's medium (Sigma-Aldrich D6046) with 1g/L glucose, supplemented with 10% FCS (Merck) and 1% penicillin/streptomycin (PAA). CHO-K1 cells (ATCC #CCL-61) were maintained in modified phenol red free RPMI-1640 medium (Sigma-Aldrich, R7509), supplemented with 2 mM L-glutamine (Sigma-Aldrich, G7513), and 10% FCS (Merck). Cells were cultured at 37 °C in a 5% CO2 atmosphere. The following plasmids were used for transfection with the amount of DNA indicated (per 35 mm Petri dish): hBACE1 (NM_012104.4), 50 ng for single molecule recordings, 200 ng otherwise; hBACE1 fused to EGFP or mCherry, 75 ng; hBACE1 D289N fused to EGFP or mCherry, 75 ng; hBACE1 D289N, 200–400 ng; hBACE2 (NM_012105.3) fused to EGFP, 75 ng; hCathepsinD (HsCD00438327), Harvard PlasmID, 75 ng. Transfection was performed 24 h after plating using jetPEI (Polyplus) according to the manufacturer’s protocol.
For labeling, we plated HEK293T cells onto sterile 18 mm 1.5H borosilicate coverslips (VWR), coated with poly-D-lysine (Sigma). […] In addition, some cells were also fixed with 4% PFA or permeabilized with HBS + 50 μg/mL of Saponin for 15 min prior to staining as stated in the figure legend. After staining, live cells were washed with HBS twice. Confocal imaging was conducted at room temperature in HBS using the 63× objective and the pinhole set to 1 AU. Confocal imaging was performed 24 h after transfection.

[2] = target: T2, hBACE1 D289N (proteolytic inactive mutant) in HEK293T cells (Homo sapiens, UniProt P56817, D289N); assay: Staining of transfected HEK293T cells, confocal imaging: BACE1 D289N; format: cell-based
T2 construct: expressed in transfected cells; host or cells: HEK293T
Protocol: as §1, §2, §3
For labeling, we plated HEK293T cells onto sterile 18 mm 1.5H borosilicate coverslips (VWR), coated with poly-D-lysine (Sigma). […]

[3] = FCS of free Alexa-C3 in HBS in the absence of BACE1; settings: 100 nM in HBS, pH 5, no BACE1, mean ± SD
[4] = target: recombinant human BACE1 protein (amino acids 1–457, extracellular domain) (Homo sapiens, UniProt P56817); assay: Fluorescence correlation spectroscopy (FCS) with BACE1 ECD in solution
[5] = target: T3, hBACE2 fused to EGFP in HEK293T cells (Homo sapiens, UniProt Q9Y5Z0); assay: Staining of transfected HEK293T cells, confocal imaging: BACE2; format: cell-based
T3 construct: expressed in transfected cells; host or cells: HEK293T
T3 sequence (Q9Y5Z0 63-518): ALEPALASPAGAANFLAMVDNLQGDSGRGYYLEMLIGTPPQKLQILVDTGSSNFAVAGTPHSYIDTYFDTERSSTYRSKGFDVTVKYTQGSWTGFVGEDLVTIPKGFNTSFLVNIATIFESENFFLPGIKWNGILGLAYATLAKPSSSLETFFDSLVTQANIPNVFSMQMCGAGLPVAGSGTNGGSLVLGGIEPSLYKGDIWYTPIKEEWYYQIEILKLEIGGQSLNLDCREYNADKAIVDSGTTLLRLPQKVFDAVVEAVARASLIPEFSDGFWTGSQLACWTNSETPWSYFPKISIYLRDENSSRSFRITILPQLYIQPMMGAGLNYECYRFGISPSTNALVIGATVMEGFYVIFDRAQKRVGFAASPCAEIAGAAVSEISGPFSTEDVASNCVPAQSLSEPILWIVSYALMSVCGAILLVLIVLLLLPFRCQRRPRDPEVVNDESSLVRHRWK
Protocol: as §1, §2
(§4) HEK293T cells (ATCC accession number CRL-11268) were maintained in Dulbecco's modified Eagle's medium (Sigma-Aldrich D6046) with 1g/L glucose, supplemented with 10% FCS (Merck) and 1% penicillin/streptomycin (PAA). CHO-K1 cells (ATCC #CCL-61) were maintained in modified phenol red free RPMI-1640 medium (Sigma-Aldrich, R7509), supplemented with 2 mM L-glutamine (Sigma-Aldrich, G7513), and 10% FCS (Merck). Cells were cultured at 37 °C in a 5% CO2 atmosphere. […]

[6] = target: T4, hCathepsinD in HEK293T cells (Homo sapiens, UniProt P07339); assay: Staining of transfected HEK293T cells, confocal imaging: Cathepsin D; format: cell-based
T4 construct: EGFP or mCherry (C); host or cells: HEK293T
Protocol: as §1, §2, §4

Sequence of recombinant human BACE1 protein (amino acids 1–457, extracellular domain) (P56817 22-457): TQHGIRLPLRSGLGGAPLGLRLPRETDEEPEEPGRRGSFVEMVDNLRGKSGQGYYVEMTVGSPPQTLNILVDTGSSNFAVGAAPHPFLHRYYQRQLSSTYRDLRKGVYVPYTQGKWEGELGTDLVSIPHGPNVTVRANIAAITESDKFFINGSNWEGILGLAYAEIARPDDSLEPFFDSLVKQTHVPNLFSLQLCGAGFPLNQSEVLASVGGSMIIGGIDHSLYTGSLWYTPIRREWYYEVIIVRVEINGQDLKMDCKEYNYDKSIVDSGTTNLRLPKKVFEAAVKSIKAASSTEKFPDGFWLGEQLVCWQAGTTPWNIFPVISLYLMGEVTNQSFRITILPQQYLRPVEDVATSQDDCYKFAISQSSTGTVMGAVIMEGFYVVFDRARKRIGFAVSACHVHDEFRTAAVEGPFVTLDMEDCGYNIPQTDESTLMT
T1 sequence (P56817 46-501): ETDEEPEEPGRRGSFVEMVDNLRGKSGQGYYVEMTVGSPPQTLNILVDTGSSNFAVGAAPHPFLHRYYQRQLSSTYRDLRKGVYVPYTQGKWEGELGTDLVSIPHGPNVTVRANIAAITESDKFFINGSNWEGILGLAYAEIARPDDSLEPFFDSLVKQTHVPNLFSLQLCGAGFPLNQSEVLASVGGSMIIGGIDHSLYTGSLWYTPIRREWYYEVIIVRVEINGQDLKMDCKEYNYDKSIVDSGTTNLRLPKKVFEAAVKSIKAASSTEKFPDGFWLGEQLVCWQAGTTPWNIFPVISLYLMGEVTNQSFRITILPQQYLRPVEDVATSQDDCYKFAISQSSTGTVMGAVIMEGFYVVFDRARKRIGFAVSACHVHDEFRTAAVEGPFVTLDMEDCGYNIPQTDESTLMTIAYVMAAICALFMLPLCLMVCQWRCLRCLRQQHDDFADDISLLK
T2 sequence (P56817 46-501 D289N): as the sequence (P56817 46-501) above, with D244N counted along it
T4 sequence (P07339 65-412): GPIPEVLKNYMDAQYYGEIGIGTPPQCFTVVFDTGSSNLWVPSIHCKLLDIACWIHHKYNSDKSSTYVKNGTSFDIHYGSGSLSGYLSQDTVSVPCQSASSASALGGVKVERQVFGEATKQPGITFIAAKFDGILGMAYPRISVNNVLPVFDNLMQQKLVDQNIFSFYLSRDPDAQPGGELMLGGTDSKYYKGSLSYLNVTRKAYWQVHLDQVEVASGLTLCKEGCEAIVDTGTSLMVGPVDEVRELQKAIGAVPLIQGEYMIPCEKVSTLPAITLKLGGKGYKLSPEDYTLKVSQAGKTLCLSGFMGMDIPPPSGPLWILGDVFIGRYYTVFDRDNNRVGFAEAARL

Row | staining of BACE1 after preincubation with unconjugated C3 [1] | staining of BACE1 D289N [2] | diffusion time constant of free probe [3] [μs] | EC50 [4] [nM] | diffusion time constant of the second (BACE1-bound, slow) population ([4]; 100 nM probe with BACE1 ECD, pH 5, mean ± SEM, n = 3 preparations) [μs] | specificity in permeabilized cells ([1]; 50 μg/mL saponin prior to staining, 100 nM probe) | staining of BACE1 after fixation with PFA ([1]; HEK293T fixed with 4% PFA for 15 min prior to staining) | staining of BACE2 [5] | staining of Cathepsin D [6] | Compound | additional slow diffusing component with BACE1 ECD ([4]; 100 nM probe with BACE1 ECD, pH 5)
1 | no appreciable fluorescence | no appreciable fluorescence | 35 ± 3 | 9.77 | 310 ± 10 | – | – | – | – | C[C@@H](NC(=O)c1cc(C(=O)N[C@@H](Cc2ccccc2)[C@H](O)CNC2CC2)cc(N(C)S(=O)(=O)CCCNC(=O)c2ccc(C(=O)O)c(-c3c4ccc(=N)c(S(=O)(=O)O)c-4oc4c(S(=O)(=O)O)c(N)ccc34)c2)c1)c1ccccc1 [2-(6-Amino-3-iminio-4,5-disulfo-3H-xanthen-9-yl)-4-((3-(N-(3-(((2S,3R)-4-(cyclopropylamino)-3-hydroxy-1-phenylbutan-2-yl)carbamoyl)-5-(((R)-1-phenylethyl)carbamoyl)phenyl)-N-methylsulfamoyl)propyl)carbamoyl)benzoate] | –
2 | absence of any staining | not labeled | 53 ± 18 | – | – | the same specificity was observed | did not yield a considerable signal | not labeled | not labeled | C[C@@H](NC(=O)c1cc(C(=O)N[C@@H](Cc2ccccc2)[C@H](O)CNC2CC2)cc(N(C)S(=O)(=O)CCCNC(=O)CCCCCC2(C)C(/C=C/C=C/C=C3/N(CCCS(=O)(=O)O)c4ccc(S(=O)(=O)O)cc4C3(C)C)=[N+](CCCS(=O)(=O)[O-])c3ccc(S(=O)(=O)O)cc32)c1)c1ccccc1 (stereo partly shown) | no additional slow component was observed
